Laboratory results taken from US6572865B1, “Mycobacterium tuberculosis DNA sequences encoding immunostimulatory peptides and methods for using same” (priority 1995, dated 2003).
Like-named read-outs stand apart in the source and are kept apart here.

B1: AciI#3-243: AP-fusion clone; SEQ ID NO: 112; MTCY50.02 (protein)
chain: AGGCGACGGTTGGCACCACCACGAGTGAGTCAGGCAGGAGCCCCGCCACGTTGCGGACGGCGCGAATCTTCGCCTGTGGCTCACCGACTTTCCGCCCAACTTCAACGATCTTGCACATGGACGGCAAGAACGCCGAGGTCGCG
notes: AP-fusion clone; MTCY50.02
B2: AciI#2-874: AP-fusion clone; SEQ ID NO: 73; MTCY190.20 (protein)
chain: VMPSSIGLVVGSMLWRQINRLFGVRGLCWAAHCSTPLCAAVHGGRVVWAVGSRLGVLHGVPAGYGGRSNGGRRIDIVDQRPRAR
notes: AP-fusion clone; MTCY190.20

What was measured:
[1] = system: T-cells from tuberculin-positive people; format: cell-based, human
[2] = system: immune T-cells; format: cell-based, mice; conditions: Table 2; background subtracted; up to ten μg fusion peptide
[3] = 5×10^5 mononuclear cells, up to 1 μg/mL peptide or up to 50 ng/mL PhoA fusion protein
[4] = up to 1 μg/mL peptide or up to 50 ng/mL PhoA fusion protein, background 103.3

Row | Molecule | Concentration of INF-γ [1, 3] [pg/mL] | Concentration of INF-γ minus background [1, 4] [pg/mL] | Concentration of INF-γ ([1]; control at 10 μg/mL) [pg/mL] | Concentration of INF-γ minus background ([1]; control at 10 μg/mL) [pg/mL] | INF: pg/mL of INF-γ produced using fusion to stimulate immune T-cells [2]
1 | EYSRFVGDVFGAPLAME [CD-2/1/96/10, synthetic peptide from AciI#2-827] | 134.0 | 30.7 | – | – | –
2 | GKTYDAYFTDAGGITPG [HPI1-3/2, synthetic peptide from HinP#1-3] | 136.3 | 23.0 | – | – | –
3 | GRAELSSIVVLLTNNTA [CD-2/1/96/14, synthetic peptide from AciI#2-827] | 310.2 | 206.9 | – | – | –
4 | PhoA control: PhoA protein employed as a negative control [reference compound] | – | – | 26.7 | 0 | –
5 | SRFVGDVFGAPLAMESL [CD-2/1/96/11, synthetic peptide from AciI#2-827] | 141.6 | 38.3 | – | – | –
6 | VTDNPAWYRLTKFFGKL [CD-2/1/96/1, synthetic peptide from AciI#2-827] | 256.6 | 153.3 | – | – | –
7 | WSEYSRFVGDVFGAPLA [CD-2/1/96/9, synthetic peptide from AciI#2-827] | 187.6 | 84.3 | – | – | –
8 | YDAYFTDAGGITPGNSV [HPI1-3/3, synthetic peptide from HinP#1-3] | 264.2 | 160.9 | – | – | –
9 | B1 | – | – | – | – | 2,857 pg/mL
10 | B2 | – | – | – | – | 2,171 pg/mL
